Assay [1] has as its system PC-3M-Luc-C6 prostate cells. Description: In vitro PC-3M-Luc-C6 prostate cell proliferation assay in lipid reduced medium. The conditions noted are these: 96 h, read-out: pIC50 PC-3M-Luc-C6 prostate cell (converted). The class given is cell-based.
Assay [2] has as its target T1, hFASN enzyme (full length) (Homo sapiens, UniProt P49327).
T1 construct: 10 μL hFASN enzyme (full length, 300 ng, purified in house); made in house
Description: Fatty Acid Synthase (FASN) inhibition scintillation proximity assay. It counts as biochemical. Particulars: for inhibition at 10 µM: read-out: Human FASN % inhibition @ 10 μM, 10 μM test compound; for IC50: read-out: Human FASN pIC50 (converted). In outline: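 Purified full-length hFASN (300 ng) converts ^3H-acetyl-CoA plus malonyl-CoA to ^3H-palmitate in 100 mM KH2PO4 pH 7.5, 1 mM DTT; compounds tested at 0.01–30 μM. Product captured on streptavidin imaging beads and read by LEADseeker at 610 nm after ≥24 h; 4-parameter logistic fit versus controls.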

In assay [3] the test system is A2780 ovarian cells. Description: A2780 ovarian cell proliferation assay in lipid reduced medium, with palmitate (MTT). The class given is cell-based. The conditions noted are these: Homo sapiens, A2780, 96 h; read-out: pIC50 A2780 Ovarian Cell, With Palmitate (converted). An outline of the steps:
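Seeded cells were switched next day to lipid-reduced serum, exposed to compound and 25 μM palmitate complexed with fatty-acid-free BSA, and incubated 96 h. Proliferation was then determined by MTT absorbance at 544 nm, with a best-fit curve of signal against concentration.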

The target in assay [4] is Fatty Acid Synthase Keto-reductase Domain (FASN KR) (Homo sapiens, UniProt P49327). The experiment in a line: Fatty Acid Synthase keto-reductase domain (FASN KR) inhibition, NADPH oxidation at 340 nm.
Chain of Fatty Acid Synthase Keto-reductase Domain (FASN KR) (P49327 whole entry, the tested form may be a part): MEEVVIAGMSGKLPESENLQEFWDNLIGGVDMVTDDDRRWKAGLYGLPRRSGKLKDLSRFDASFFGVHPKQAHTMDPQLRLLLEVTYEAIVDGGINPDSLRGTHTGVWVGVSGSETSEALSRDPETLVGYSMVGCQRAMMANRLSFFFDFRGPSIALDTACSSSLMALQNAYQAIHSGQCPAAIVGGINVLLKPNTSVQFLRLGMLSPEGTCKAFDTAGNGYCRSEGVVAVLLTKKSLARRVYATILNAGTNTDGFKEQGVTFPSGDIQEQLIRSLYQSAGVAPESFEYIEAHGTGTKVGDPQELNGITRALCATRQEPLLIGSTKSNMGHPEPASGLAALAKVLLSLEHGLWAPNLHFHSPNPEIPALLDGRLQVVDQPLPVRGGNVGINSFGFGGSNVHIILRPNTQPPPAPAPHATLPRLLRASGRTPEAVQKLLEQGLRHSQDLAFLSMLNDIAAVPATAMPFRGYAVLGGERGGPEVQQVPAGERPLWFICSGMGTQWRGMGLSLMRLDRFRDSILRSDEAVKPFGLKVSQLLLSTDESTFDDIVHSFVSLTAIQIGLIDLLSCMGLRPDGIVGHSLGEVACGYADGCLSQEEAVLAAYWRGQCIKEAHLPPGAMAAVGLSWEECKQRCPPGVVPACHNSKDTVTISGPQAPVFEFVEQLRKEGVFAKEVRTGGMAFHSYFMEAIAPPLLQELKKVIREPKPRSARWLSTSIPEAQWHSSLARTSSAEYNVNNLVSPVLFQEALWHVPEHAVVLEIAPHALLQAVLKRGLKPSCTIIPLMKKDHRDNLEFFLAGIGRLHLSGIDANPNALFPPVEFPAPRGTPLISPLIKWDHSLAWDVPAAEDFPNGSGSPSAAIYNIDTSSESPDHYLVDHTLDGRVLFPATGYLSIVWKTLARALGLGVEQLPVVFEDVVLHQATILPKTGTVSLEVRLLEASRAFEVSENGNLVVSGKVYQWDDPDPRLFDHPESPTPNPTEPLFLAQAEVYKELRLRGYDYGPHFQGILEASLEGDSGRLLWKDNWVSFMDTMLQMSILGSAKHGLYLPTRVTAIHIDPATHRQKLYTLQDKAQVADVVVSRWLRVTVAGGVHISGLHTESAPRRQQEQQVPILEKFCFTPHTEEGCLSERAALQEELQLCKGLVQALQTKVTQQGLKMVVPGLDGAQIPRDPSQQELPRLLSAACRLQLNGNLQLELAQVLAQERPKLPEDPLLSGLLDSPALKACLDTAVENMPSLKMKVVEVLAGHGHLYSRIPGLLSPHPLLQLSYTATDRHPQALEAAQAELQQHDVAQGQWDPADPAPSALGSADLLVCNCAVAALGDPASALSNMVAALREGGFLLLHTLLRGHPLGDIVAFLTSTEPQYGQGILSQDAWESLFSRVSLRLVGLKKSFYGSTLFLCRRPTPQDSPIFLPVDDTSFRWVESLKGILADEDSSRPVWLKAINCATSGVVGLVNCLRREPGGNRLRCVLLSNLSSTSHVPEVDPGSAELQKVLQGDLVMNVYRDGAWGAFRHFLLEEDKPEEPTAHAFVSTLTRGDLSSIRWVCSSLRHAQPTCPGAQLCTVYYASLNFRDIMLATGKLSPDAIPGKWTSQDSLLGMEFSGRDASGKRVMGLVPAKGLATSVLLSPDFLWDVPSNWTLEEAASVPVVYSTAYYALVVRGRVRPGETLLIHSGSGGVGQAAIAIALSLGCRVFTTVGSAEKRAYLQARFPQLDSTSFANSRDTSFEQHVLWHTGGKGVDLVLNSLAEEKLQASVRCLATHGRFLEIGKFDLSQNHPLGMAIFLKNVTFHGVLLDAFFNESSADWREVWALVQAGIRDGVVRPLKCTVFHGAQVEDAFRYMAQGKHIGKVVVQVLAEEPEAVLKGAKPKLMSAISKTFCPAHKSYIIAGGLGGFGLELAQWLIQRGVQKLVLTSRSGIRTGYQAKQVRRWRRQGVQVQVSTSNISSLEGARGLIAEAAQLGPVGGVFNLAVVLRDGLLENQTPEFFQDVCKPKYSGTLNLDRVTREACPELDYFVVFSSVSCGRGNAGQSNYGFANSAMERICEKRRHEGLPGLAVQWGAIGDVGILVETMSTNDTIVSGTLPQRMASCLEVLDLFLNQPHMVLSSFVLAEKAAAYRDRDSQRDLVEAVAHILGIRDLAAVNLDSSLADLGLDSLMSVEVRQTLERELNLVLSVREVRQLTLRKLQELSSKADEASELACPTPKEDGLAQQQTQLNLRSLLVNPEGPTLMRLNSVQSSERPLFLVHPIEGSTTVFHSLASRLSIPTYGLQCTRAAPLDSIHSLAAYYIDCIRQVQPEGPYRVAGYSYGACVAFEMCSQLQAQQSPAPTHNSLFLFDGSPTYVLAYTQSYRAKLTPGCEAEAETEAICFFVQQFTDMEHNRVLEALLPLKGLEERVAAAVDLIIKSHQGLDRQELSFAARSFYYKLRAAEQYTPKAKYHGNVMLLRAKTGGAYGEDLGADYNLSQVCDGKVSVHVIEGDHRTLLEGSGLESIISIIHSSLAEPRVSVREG
Description: After 20 minutes incubation at room temperature the plate was measured again (T2).
The decrease in absorbance was calculated as (Absorbance before incubation T1)−(Absorbance following incubation T2).
A plot of Controlmin versus test compound concentration was fitted to a 4-parameter logistic curve using a non-linear least squares regression method.
The test system of assay [5] is LNCaP-Vancouver prostate cells. Description: In vitro LNCaP Vancouver prostate cell proliferation assay in lipid reduced medium. The class given is cell-based. The conditions noted are these: read-out: pIC50 LNCaP_Vancouver prostate cell (converted).
For assay [6], the system named is A2780 ovarian cells. The experiment in a line: A2780 ovarian cell proliferation assay in lipid reduced medium, without palmitate (MTT). The class given is cell-based. The conditions noted are these: Homo sapiens, A2780, 96 h; read-out: pIC50 A2780 Ovarian Cell, Without Palmitate (converted).

T1 sequence (P49327 whole entry): as the sequence (P49327 whole entry, the tested form may be a part) above

A word on the inhibition: it is the relative decrease from the control value, in per cent. For the molecule `Cn1cnc2cc(-c3ccc(C4=NC5(CC5)C(=O)N4CC4CN(C(=O)C5(C)CC5)C4)c(F)c3)ccc21` [compound 378, 5-(2-fluoro-4-(1-methyl-1H-benzo[d]imidazol-5-yl)phenyl)-6-((1-(1-methylcyclopropanecarbonyl)azetidin-3-yl)methyl)-4,6-diazaspiro[2.4]hept-4-en-7-one], the IC50 is 10.5 nM in assay [1]; 38.9 nM in assay [2]; greater than 10000 nM in assay [3]; 45.7 nM in assay [4]; 74.1 nM in assay [5]; roughly 5.13 nM in assay [6]. For the same molecule, the inhibition at 10 µM in assay [2] worked out at 100%.
For the molecule `Cn1cc(-c2ccc(-c3ccc(C4=NC5(CC5)C(=O)N4C[C@@H]4CCN(C(=O)C5(O)CC5)C4)c(F)c3)cc2)cn1` [compound 379, (R)-5-(3-fluoro-4′-(1-methyl-1H-pyrazol-4-yl)-[1,1′-biphenyl]-4-yl)-6-((1-(1-hydroxycyclopropanecarbonyl)pyrrolidin-3-yl)methyl)-4,6-diazaspiro[2.4]hept-4-en-7-one], the IC50 was roughly 2.45 nM in assay [1]; 20 nM in assay [2]; greater than 10000 nM in assay [3]; 27.5 nM in assay [4]; 5.01 nM in assay [5]; roughly 1.07 nM in assay [6]. Further, in assay [2], the inhibition at 10 µM turned out to be 102%.
On to `COc1cccc2ccc(-c3ccc(C4=NC5(CC5)C(=O)N4CC4CN(C(=O)C5CC5)C4)c(F)c3)cc12` [compound 380, 6-((1-(cyclopropanecarbonyl)azetidin-3-yl)methyl)-5-(2-fluoro-4-(8-methoxynaphthalen-2-yl)phenyl)-4,6-diazaspiro[2.4]hept-4-en-7-one], for which the IC50 in assay [1] was 309 nM; in assay [2] it was 66.1 nM; in assay [3], greater than 10000 nM; in assay [4], 95.5 nM; in assay [5] it was 1150 nM; in assay [6], 132 nM. Also, the inhibition at 10 µM in assay [2] was 100%.
For `O=C(N1CC[C@@H](CN2C(=O)C3(CC3)N=C2c2ccc(-c3ccc4cc(F)ccc4c3)cc2F)C1)C1(O)CC1` [compound 381, (R)-5-(2-fluoro-4-(6-fluoronaphthalen-2-yl)phenyl)-6-((1-(1-hydroxycyclopropanecarbonyl)pyrrolidin-3-yl)methyl)-4,6-diazaspiro[2.4]hept-4-en-7-one], the IC50 in assay [1] was 1.91 nM; in assay [2] it was 22.9 nM; in assay [3], greater than 10000 nM; in assay [4] it was 35.5 nM; in assay [5] it was 10.5 nM; in assay [6], roughly 2.51 nM. The inhibition at 10 µM in assay [2] was 98%.
As to `Cn1cc(-c2ccc(-c3ccc(C4=NC5(CC5)C(=O)N4CC4CN(C(=O)C5(O)CC5)C4)c(F)c3)cc2)cn1` [compound 382, 5-(3-fluoro-4′-(1-methyl-1H-pyrazol-4-yl)-[1,1′-biphenyl]-4-yl)-6-((1-(1-hydroxycyclopropanecarbonyl)azetidin-3-yl)methyl)-4,6-diazaspiro[2.4]hept-4-en-7-one], the IC50 was 26.9 nM in assay [1]; 25.1 nM in assay [2]; greater than 10000 nM in assay [3]; 66.1 nM in assay [4]; 55 nM in assay [5]; roughly 6.76 nM in assay [6]. In addition, in assay [2], the inhibition at 10 µM stood at 99%.
As for `O=C(N1CC(CN2C(=O)C3(CC3)N=C2c2ccc(-c3ccc4cc(Cl)ccc4c3)cc2F)C1)C1(O)CC1` [compound 383, 5-(4-(6-chloronaphthalen-2-yl)-2-fluorophenyl)-6-((1-(1-hydroxycyclopropanecarbonyl)azetidin-3-yl)methyl)-4,6-diazaspiro[2.4]hept-4-en-7-one], the IC50 is roughly 18.2 nM in assay [1]; 24 nM in assay [2]; roughly 4680 nM in assay [3]; 61.7 nM in assay [4]; 50.1 nM in assay [5]; 10.5 nM in assay [6]. Further, in assay [2], the inhibition at 10 µM is 102%.
Turning to `O=C(N1CC(CN2C(=O)C3(CC3)N=C2c2ccc(-c3ccc4ccc(F)cc4c3)cc2F)C1)C1(O)CC1` [compound 384, 5-(2-fluoro-4-(7-fluoronaphthalen-2-yl)phenyl)-6-((1-(1-hydroxycyclopropanecarbonyl)azetidin-3-yl)methyl)-4,6-diazaspiro[2.4]hept-4-en-7-one], the IC50 in assay [1] was 166 nM; in assay [2], 63.1 nM; in assay [3] it was 5250 nM; in assay [4], roughly 851 nM; in assay [5], 832 nM; in assay [6] it was 72.4 nM. Further, in assay [2], the inhibition at 10 µM amounted to 100%.
`CC1(C(=O)N2CC(CN3C(=O)C4(CC4)N=C3c3ccc(-c4ccc5cc(C#N)ccc5c4)cc3F)C2)CC1` [compound 385, 6-(3-fluoro-4-(6-((1-(1-methylcyclopropanecarbonyl)azetidin-3-yl)methyl)-7-oxo-4,6-diazaspiro[2.4]hept-4-en-5-yl)phenyl)-2-naphthonitrile]: the IC50 in assay [1] was roughly 4.79 nM; in assay [2], 22.9 nM; in assay [3] it was roughly 2570 nM; in assay [4] it was 43.7 nM; in assay [5] it was 18.6 nM; in assay [6], roughly 3.63 nM. Moreover, in assay [2], the inhibition at 10 µM is 103%.
As to `O=C(C1CC1)N1CC[C@@H](CN2C(=O)C3(CC3)N=C2c2ccc(-c3ccc4occc4c3)cn2)C1` [compound 390, 5-[5-(1-Benzofuran-5-yl)pyridin-2-yl]-6-{[(3R)-1-(cyclopropylcarbonyl)pyrrolidin-3-yl]methyl}-4,6-diazaspiro[2.4]hept-4-en-7-one], the IC50 in assay [1] is 1480 nM; in assay [2], 324 nM; in assay [3], greater than 10000 nM; in assay [4], 676 nM; in assay [5] it was 2750 nM; in assay [6] it was roughly 2630 nM. In assay [2], the inhibition at 10 µM was found to be 99%.
For the molecule `Cc1cc2cc(-c3ccc(C4=NC5(CC5)C(=O)N4CC4CN(C(=O)C5CC5)C4)c(C)c3)ccc2s1` [compound 391, 6-{[1-(Cyclopropylcarbonyl)azetidin-3-yl]methyl}-5-[2-methyl-4-(2-methyl-1-benzothiophen-5-yl)phenyl]-4,6-diazaspiro[2.4]hept-4-en-7-one], the IC50 in assay [1] is 724 nM; in assay [2] it was 129 nM; in assay [3], greater than 10000 nM; in assay [4], 389 nM; in assay [5], 1700 nM; in assay [6] it was 1170 nM. The inhibition at 10 µM in assay [2] was determined as 104%.
Take `Cc1cc(C2=NC3(CC3)C(=O)N2CC2CN(C(=O)C3CC3)C2)ccc1-c1ccc2sccc2c1` [compound 392, 5-[4-(1-Benzothiophen-5-yl)-3-methylphenyl]-6-{[1-(cyclopropylcarbonyl)azetidin-3-yl]methyl}-4,6-diazaspiro[2.4]hept-4-en-7-one]: the IC50 is 1620 nM in assay [1]; 245 nM in assay [2]; greater than 10000 nM in assay [3]; 871 nM in assay [4]; roughly 1700 nM in assay [5]; 2510 nM in assay [6]. Also, the inhibition at 10 µM in assay [2] amounted to 91%.
Consider `Cc1cc(-c2ccc3oc(C)c(C)c3c2)ccc1C1=NC2(CC2)C(=O)N1CC1CN(C(=O)C2CC2)C1` [compound 398, 6-{[1-(Cyclopropylcarbonyl)azetidin-3-yl]methyl}-5-[4-(2,3-dimethyl-1-benzofuran-5-yl)-2-methylphenyl]-4,6-diazaspiro[2.4]hept-4-en-7-one], for which the IC50 in assay [1] was 1740 nM; in assay [2], 263 nM; in assay [3], greater than 10000 nM; in assay [4], 955 nM; in assay [5] it was 2340 nM; in assay [6] it was roughly 2290 nM. Moreover, the inhibition at 10 µM in assay [2] came out at 102%.
Regarding `Cc1oc2ccc(-c3ccc(C4=NC5(CC5)C(=O)N4C[C@@H]4CCN(C(=O)C5CC5)C4)cc3F)cc2c1C` [compound 399, 6-{[(3R)-1-(Cyclopropylcarbonyl)pyrrolidin-3-yl]methyl}-5-[4-(2,3-dimethyl-1-benzofuran-5-yl)-3-fluorophenyl]-4,6-diazaspiro[2.4]hept-4-en-7-one], the IC50 in assay [1] was greater than 3020 nM; in assay [2] it was 363 nM; in assay [3], greater than 6170 nM; in assay [4], 1320 nM; in assay [5], greater than 3020 nM; in assay [6], greater than 6170 nM. Further, the inhibition at 10 µM in assay [2] worked out at 99%.
Consider `Nc1cccc(-c2ccc(C3=NC4(CC4)C(=O)N3C[C@@H]3CCN(C(=O)C4CC4)C3)cc2)n1` [compound 400, 5-[4-(6-Aminopyridin-2-yl)phenyl]-6-{[(3R)-1-(cyclopropylcarbonyl)pyrrolidin-3-yl]methyl}-4,6-diazaspiro[2.4]hept-4-en-7-one], for which the IC50 in assay [1] is 214 nM; in assay [2], 195 nM; in assay [3] it was greater than 6170 nM; in assay [4], 479 nM; in assay [5], 1200 nM; in assay [6], 229 nM. Moreover, the inhibition at 10 µM in assay [2] came out at 101%.

Source of the values: patent publication US10077261B2, “Imidazolin-5-one derivative useful as FASN inhibitors for the treatment of cancer” (Janssen Pharmaceutica NV, priority 2012, dated 2018).
